The target of one assay is T1, STAT6 (Homo sapiens, UniProt P42226).
T1 construct: These cells express endogenous STAT6; host or cells: HeLa LgBiT clone 4.14
T1 sequence (P42226 1-847): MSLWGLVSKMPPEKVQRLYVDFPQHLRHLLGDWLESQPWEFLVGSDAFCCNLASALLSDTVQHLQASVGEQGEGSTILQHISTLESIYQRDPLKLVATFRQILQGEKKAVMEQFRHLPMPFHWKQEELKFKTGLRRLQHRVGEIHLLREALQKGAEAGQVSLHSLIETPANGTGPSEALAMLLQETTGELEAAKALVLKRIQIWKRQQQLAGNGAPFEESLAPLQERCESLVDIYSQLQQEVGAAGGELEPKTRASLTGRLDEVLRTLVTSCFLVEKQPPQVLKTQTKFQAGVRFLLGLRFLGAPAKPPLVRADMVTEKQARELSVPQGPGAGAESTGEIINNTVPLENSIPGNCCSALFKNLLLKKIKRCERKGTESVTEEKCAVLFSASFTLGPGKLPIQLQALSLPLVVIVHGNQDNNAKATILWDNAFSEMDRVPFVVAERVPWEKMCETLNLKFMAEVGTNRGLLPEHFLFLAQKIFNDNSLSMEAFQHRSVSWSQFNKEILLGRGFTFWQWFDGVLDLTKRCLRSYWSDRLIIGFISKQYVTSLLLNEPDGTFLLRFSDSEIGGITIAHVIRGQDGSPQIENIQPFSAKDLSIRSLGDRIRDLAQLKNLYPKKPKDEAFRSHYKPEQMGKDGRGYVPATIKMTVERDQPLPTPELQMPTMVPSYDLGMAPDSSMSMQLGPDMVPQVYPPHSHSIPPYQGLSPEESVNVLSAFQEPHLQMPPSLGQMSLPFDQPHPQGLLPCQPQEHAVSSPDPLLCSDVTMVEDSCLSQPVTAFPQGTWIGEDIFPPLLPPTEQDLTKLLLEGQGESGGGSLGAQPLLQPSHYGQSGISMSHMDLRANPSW
As to the kind of experiment: Stat6 Degrader Assay (HiBiT based, HeLa LgBiT clone 4.14). Type of assay: cell-based. Conditions: HeLa LgBiT clone 4.14 HiBiT-STAT6, 4-24 h incubation; values given for compounds with >80% Emax; geometric mean; read-out: STAT6 degradation DC50. In outline:
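Luminescence from HiBiT-STAT6 complementing stably expressed LgBiT in HeLa clone 4.14 reports remaining STAT6 protein. Cells (5000/well) exposed to compound for 4-24 h at 37° C; read 0.5 h after Nano-Glo addition. 100% degradation window set with 50 μM terfenadine; percent degradation plotted against concentration.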
(The HiBiT peptide binds its large partner to form an active luciferase.)

Assay [1] relates to Eotaxin-3 release in human whole blood stimulated with IL-4. The assay can be described thus: Human Whole Blood Eotaxin-3 Assay (IL-4 stimulated eotaxin-3 release). Type of assay: cell-based. Conditions: IL-4 stimulation, 48 h, values given for compounds with >80% Emax, geometric mean. As to the method:
Human Whole Blood Eotaxin-3 Assay
This was a human whole blood assay using recombinant human Interleukin 4 to stimulate the blood and measuring the ability of the test compounds to inhibit eotaxin-3 release. The biological activities of the test compounds have been tested in human whole blood stimulated with IL-4 measuring Eotaxin-3 release. The test compounds were added to 384 well clear flat-bottom plate in a 4-fold serial dilution in triplicates using a liquid handler. Human whole blood stabilized in lithium-heparin tubes was added in a volume of 65 μL per well, resulting in a final DMSO concentration of 0.5%. The plate is incubated for 2 h at 37° C. under 5% CO2/95% air. Subsequently, 5 μL of recombinant human IL-4 (R&D Systems, cat #204-ILB) was added to the wells to a final concentration of […]. The plate was incubated for 48 h at 37° C. under 5% CO2/95% air. The plate was spun down for 10 minutes at 500×g and 20 μL supernatant was harvested and transferred to a 384 well v-bottom plate using a liquid handler and stored at −20° C. until further analysis. 10 μL supernatant was used to measure the level of Eotaxin-3 (CCL26) using Human Eotaxin-3 MSD kit from Mesocsale (Cat #K251UEK-4). The assay was performed according to the manufacture instructions.
The data from the human whole blood eotaxin-3 assay is shown in FIG. 2 for Examples 3u208, 3u246, 3u118, 3u119, 3u120, and 3u74 (where the effect in % is plotted against the test concentration in M on a log scale).

SMILES strings stand for the structures. pEC50: −log10 of the molar value.

Consider `CNc1ccn(-c2ccnc3c2cc([C@H](C)N2CC=C(c4c(F)cc(C(=O)N5CCC(CN6CCN(Cc7ccc8c(c7)n(C7CC7)c(=O)n8[C@@H]7CCC(=O)NC7=O)C[C@@H]6C)CC5)cc4F)CC2)n3C)c(=O)c1` (single isomer, unassigned) [Example 3u212], for which the DC50 at STAT6 turned out to be 7.5 nM. Besides, in assay [1], the pEC50 is 9.10.
For `CNc1ccn(-c2ccnc3c2cc([C@H](C)N2CCC(c4ccc(C(=O)N5CCC(CN6CCN(Cc7ccc8c(c7)C(C)(C)C(=O)N8C7CCC(=O)NC7=O)C[C@@H]6C)CC5)cc4)CC2)n3C)c(=O)c1` (stereo partly drawn) [Example 3u187, 3-(3,3-dimethyl-5-(((S)-3-methyl-4-((1-(4-(1-((S)-1-(1-methyl-4-(4-(methylamino)-2-oxopyridin-1 (2H)-yl)-1H-pyrrolo[2,3-b]pyridin-2-yl)ethyl)piperidin-4-yl)benzoyl)piperidin-4-yl)-methyl)piperazin-1-yl)methyl)-2-oxoindolin-1-yl)piperidine-2,6-dione], in that order: 3.1 nM and 8.38.
Turning to `CNc1ccn(-c2ccnc3c2cc([C@H](C)N2CC=C(c4c(C)cc(C(=O)N(C)c5ccc(C6CCN(Cc7ccc8c(c7)n(C)c(=O)n8[C@@H]7CCC(=O)NC7=O)CC6)cc5)cc4F)CC2)n3C)c(=O)c1` (single isomer, unassigned) [Example 3u227], the DC50 on STAT6 came out at 0.04 nM. Also, the pEC50 in assay [1] is 9.52.
For `CNc1ccn(-c2ccnc3c2cc([C@H](C)N2CC=C(c4c(C)cc(C(=O)N5CCC(CN6CCN(Cc7ccc8c(c7)C7(CC7)C(=O)N8[C@H]7CCC(=O)NC7=O)C[C@@H]6C)CC5)cc4F)CC2)n3C)c(=O)c1` (single isomer, unassigned) [Example 3u191], in that order: 0.4 nM and 9.30.
For `CNc1cc(=O)n(-c2ccnc3c2cc(CN2CCC(c4c(F)cc(C(=O)N5CCC(CN6CCN(Cc7cc8c(cc7F)N([C@@H]7CCC(=O)NC7=O)C(=O)C87CC7)CC6)CC5)cc4F)CC2)n3C)cc1F` (single isomer, unassigned) [Example 3u95], in that order: 18.6 nM and 7.91.
For `CNc1cc(=O)n(-c2ccnc3c2cc([C@H](C)N2CC=C(c4c(C)cc(C(=O)N5CCC(CN6CCN(Cc7ccc8c(c7)C(C)(C)C(=O)N8[C@@H]7CCC(=O)NC7=O)CC6)CC5)cc4F)CC2)n3C)cc1F` (single isomer, unassigned) [Example 3u89], in that order: 4.1 nM and 7.36.
In the case of `CNc1ccn(-c2ccnc3c2cc([C@H](C)N2CC=C(c4c(C)cc(C(=O)N5CCC(CN6CCN(c7cc8c(cc7F)n([C@@H]7CCC(=O)NC7=O)c(=O)n8C)CC6)CC5)cc4F)CC2)n3C)c(=O)c1` (single isomer, unassigned) [Example 3u308], at STAT6, the DC50 amounted to 0.7 nM. Besides, the pEC50 in assay [1] is 8.89.
On to `CNc1cc(=O)n(-c2ccnc3c2cc([C@H](C)N2CC=C(c4c(C)cc(C(=O)N5CCC(CN6CCN(c7ccc8c(c7)n(C)c(=O)n8[C@H]7CCC(=O)NC7=O)CC6)CC5)cc4F)CC2)n3C)cc1F` (single isomer, unassigned) [Example 3u296], for which the DC50 on STAT6 came to 2.7 nM. Besides, the pEC50 in assay [1] is 8.24.
As to `CNc1nc(=O)n(-c2ccnc3c2cc(CN2CCC(c4c(F)cc(C(=O)N5CCC(CN6CCN(Cc7ccc8c(c7)C7(CC7)C(=O)N8C7CCC(=O)NC7=O)C[C@@H]6C)CC5)cc4F)CC2)n3C)cc1F` (stereo partly drawn) [Example 3h10, 3-(5′-(((S)-4-((1-(3,5-difluoro-4-(1-((4-(5-fluoro-4-(methylamino)-2-oxopyrimidin-1 (2H)-yl)-1-methyl-1H-pyrrolo[2,3-b]pyridin-2-yl)methyl)piperidin-4-yl)benzoyl)piperidin-4-yl)methyl)-3-methylpiperazin-1-yl)methyl)-2′-oxospiro[cyclopropane-1,3′-indolin]-1′-yl)piperidine-2,6-dione], at STAT6, the DC50 turned out to be 3.2 nM. For the same compound, the pEC50 in assay [1] is 8.32.

Usually DC50 stands for the concentration at which degradation of the target reaches its halfway point. Usually pEC50 stands for the EC50 on a negative log10 scale, so that one unit is a factor of ten. Low readings indicate a large EC50, high ones a small EC50.

The record behind these values is patent US20250320206A1, “STAT6 DEGRADERS” (Gilead Sciences, Inc., priority 2024, published 2025).
